B1: neurotrophin-3 (protein, UniProt P20783 139-257, looked up)
Neurotrophin-3: YAEHKSHRGEYSVCDSESLWVTDKSSAIDIRGHQVTVLGEIKTGNSPVKQYFYETRCKEARPVKNGCRGIDDKHWNSQCKTSQTYVRALTSENNKLVGWRWIRIDTSCVCALSRKIGRT
modifications: Neurotrophin-3
notes: neurotrophic agent neurotrophin-3

Key:
[1] = system: Sciatic Nerves from Tr^J Mice; test: Myelinated fiber density determinations, sciatic nerve crush/regeneration study (Example 1); assay type: in vivo; conditions: 4% sodium pyruvate in drinking water, twenty weeks after crush
Method: (§1) Six weeks old Tr^J mice (pmp22^Tr-J) were used in this study. A total of 8 Tr^J mice (mouse model for demyelinating CMT) were studied. Five received SP, 4% in drinking water, 3 mice left untreated to serve as control. All treatment protocols and animal surgeries were conducted under the protocols approved by the Nationwide Children's Hospital and The Ohio State University Animal Care and Use Committee. Animals were acclimatized by placing on 2.5% apple juice first, which was increased to 20% a week later. In one group (pyruvate group; n=5) sodium pyruvate (Sigma) was added to apple juice in 2.5% concentration and a week later increased to 4%. The pyruvate group remained 4% sodium pyruvate in 20% apple juice drinking water throughout the duration of the study. The control group (n=3) continued on 20% apple juice only. Drinking solutions were freshly prepared every other day.
Both groups underwent sciatic nerve crush procedure one week after starting on sodium pyruvate in apple juice or apple juice alone, providing the results shown in FIGS. 1 and 2. […]
Quantitative analysis at the light microscopic level was performed on 1 μm-thick toluidine blue stained cross sections from regenerating and intact uncrushed sciatic nerves from pyruvate and control groups. […] Unpaired t-test was calculated using graphPad Prism 6 program for comparison of the two sets of data.

[2] = system: TrJ mice; test: Nerve conduction studies, AAV1.NT-3 and pyruvate combinatorial therapy (Example 2); assay type: in vivo; conditions: 4 months of treatment, 4% SP in drinking water; control group decreased (P<0.05)
Method: FIG. 4 provides a bar graph showing the results of nerve conduction studies that were performed at baseline and endpoint following 4 months of treatment duration. […] (Error bars represent standard error of the mean. Student t test was performed).
Using the methods described below, nerve conduction studies were performed at the baseline and the endpoint, 4 months post-AAV1.NT-3 injection. During this period TrJ mice were given ad libitum access to drinking water containing 4% SP.
(§2) Nerve Conduction Studies: Sciatic motor nerve conduction studies were performed on mice under isoflurane anesthesia using a portable electrodiagnostic system (Synergy N2 EMG and nerve conduction study machine, Natus, Middleton, Wis.) as previously described. Yalvac et al., Mol Ther. 22(7):1353-63 (2014). Distance for electrode placement was measured using a compass with a needle edge and a millimeter-graduated tape measure. The sciatic motor nerve conduction responses were recorded using two fine ring electrodes (Alpine Biomed, Skovlunde, Denmark) used as the active (E1) and reference (E2) electrodes. The active recording electrode was placed over the mid portion of the gastrocnemius muscle and the reference electrode over the tendon. […] The parameters measured included compound muscle action potential (CMAP) amplitude, distal latency, and conduction velocity.

[3] = system: Sciatic Nerves from Tr^J Mice; test: Histopathology and myelinated fiber density, sciatic nerves at 16 weeks of treatment (Example 2); assay type: in vivo
[4] = system: Tr^J mice; test: Functional studies: hind limb grip strength, wire hanging test (Example 1); assay type: in vivo; conditions: at 16 weeks of treatment
Method: (§3) Additional studies were designed to assess the efficacy of pyruvate treatment using a quantitative test that has functional significance. Six Tr^J mice received SP in their drinking water and the sciatic nerve conduction studies were carried out at baseline and 16 weeks of SP supplementation. Among the parameters obtained from these studies CMAP is a direct measure of the size of the motor unit. Results were compared to age-matched Tr^J-control cohort. Functional studies (hind limb grip strength, wire hanging test and rotorod) were done at baseline and at 7 to 10 day intervals.
Wire Hang test: The mice were allowed to grasp by their four paws a 2-mm diameter metal wire maintained horizontally 35 cm above a thick layer of soft bedding (device made by the NCH Bioengineering Department according to the specifications of Klein et al.). Klein et al. J Neurosci Methods, 203:292-297 (2012). The length of time until the mice fell from the wire was recorded. After each fall, the mice were allowed to recover for 1 minute. […]
Motor function testing Tr^J mice were tested for baseline motor function within 1 week prior to receiving i.m. injection of ssAAV1.CMV.NT-3 or PBS. […] Bilateral or unilateral grip strength was assessed by allowing the animals to grasp a platform followed by pulling the animal until it releases the platform; the force measurements were recorded in four separate trials. […]

[5] = system: Sciatic Nerves from Tr^J Mice; test: g ratio of the myelinated fibers, sciatic nerve crush/regeneration study (Example 1); assay type: in vivo; conditions: for percent of fibers with G ratio less than 0.8: SP 4% in drinking water, 20 weeks; for percent of fibers within a G ratio range of 0.4-0.7: pyruvate group, control Tr^J 6.5%
Method: as §1
Both groups underwent sciatic nerve crush procedure one week after starting on sodium pyruvate in apple juice or apple juice alone, providing the results shown in FIGS. 1 and 2. Under isoflurane anesthesia left sciatic nerves were exposed and crushed with a fine forceps at a level 5 mm distal to the sciatic notch to generate a regeneration paradigm as previously described. Sahenk et al., Exp Neurol 224, 495-506 (2010). The crush site was marked by a 10-0 nylon suture tie passed through the epineurium. Mice were then killed quickly by an over-dosage of xylazine/ketamine anesthesia and the sciatic nerves from crushed and intact sites were removed under a dissecting microscope. Approximately 2 mm in length tissue blocks immediately distal to the crush site and the subsequent three segments, all marked for proximo-distal orientation as well as the mid sciatic segments from the contralateral uncrushed nerves were processed for plastic embedding for light microscope thick sections and electron microscopy using standard methods established by the inventors.
The g ratio refers to the ratio of axonal diameter/fiber diameter and lower g ratios represent axons with thicker myelin. Beuche, W., and Friede, R. L., Acta Neuropathol 66, 29-36 (1985); Friede, R. L., and Beuche, W., J Neurol Neurosurg Psychiatry 48, 749-756 (1985). For each animal, measurements from all fibers in 3 randomly selected representative unit areas were included and the g ratio distribution histograms were generated as percent of total fibers analyzed as previously described. Measurements from regenerating and intact nerves were obtained in each group. One way ANOVA was used to determine statistical analysis.

[6] = system: Tr^J mice; test: Sciatic nerve conduction studies (Example 1); assay type: in vivo
Text: as §3, with “Six Tr^J mice received SP in their drinking water and the sciatic nerve conduction studies were carried out at baseline and 16 weeks of SP supplementation.” left out
as §2

[7] = system: TrJ mice; test: Motor function: grip strength test and four-limb wire hanging strength test (Example 2); assay type: in vivo; conditions: endpoint, 4 months post injection; P<0.05
Method: Mice were tested for motor functions at the endpoint (4 months post injection) by performing grip strength test and four-limb wire hanging strength test. […] (Error bars represent standard error of the mean. Student t test was performed).
Wire Hang test: The mice were allowed to grasp by their four paws a 2-mm diameter metal wire maintained horizontally 35 cm above a thick layer of soft bedding (device made by the NCH Bioengineering Department according to the specifications of Klein et al.). […] The length of time until the mice fell from the wire was recorded. After each fall, the mice were allowed to recover for 1 minute. Each session consisted of three trials from which the scores were averaged.
Motor function testing Tr^J mice were tested for baseline motor function within 1 week prior to receiving i.m. injection of ssAAV1.CMV.NT-3 or PBS. Motor function tests included bilateral simultaneous hindlimb grip power and that of the left hind paw using a grip strength meter (Chatillon Digital Meter; Model DFIS-2; Columbus Instruments, Columbus, Ohio). Bilateral or unilateral grip strength was assessed by allowing the animals to grasp a platform followed by pulling the animal until it releases the platform; the force measurements were recorded in four separate trials. Measurements were performed on the same day and time of each week. […]

[8] = system: CMT1A patients; conditions: previous studies of the inventors; cited from earlier work
[9] = system: trembler^J (Tr^J) mouse; conditions: previous studies of the inventors; cited from earlier work

Molecule | Myelinated Fiber Density, Intact, mean ± SEM ([1]; intact (uncrushed) sciatic nerve, p = 0.0271 vs control) [number/mm2] | Myelinated Fiber Density, Regenerating, mean ± SEM ([1]; regenerating (crushed) sciatic nerve, p = 0.0075 vs control) [number/mm2] | CMAP amplitudes at the endpoint compared to the baseline [2] | myelinated fibers and myelin thickness in toluidine blue stained sciatic nerve sections vs untreated ([3]; TrJ mice, 16 weeks of treatment) | Myelinated Fiber Density, mean ± SEM ([3]; sciatic nerves, Tr^J mice, treatment duration 16 wks) [number/mm2] | hind limb grip strength compared to the untreated Tr^J controls [4] | wire hanging test (WHT) compared to the untreated Tr^J controls [4] | G ratios (axon diameter/fiber diameter) in comparison to the control Tr^J ([5]; intact and regenerating sciatic nerves, lower g ratio = thicker myelin) | percent of fibers with G ratio less than 0.8 ([5]; intact nerves, control 42%) | percent of fibers within a G ratio range of 0.4-0.7 ([5]; intact nerves) | percent of fibers with G ratio less than 0.8 ([5]; regenerating nerves, control 17%) [%] | percent of fibers within a G ratio range of 0.4-0.7 ([5]; regenerating nerves) [%] | improving myelination during regeneration, more than that of the control group ([5]; regenerating nerves, pyruvate supplementation) | Trends for improvements in conduction velocities and distal latencies ([6]; Tr^J mice, pyruvate supplementation) | CMAP amplitude of the Tr^J sciatic nerves, baseline vs endpoint ([6]; pyruvate supplementation for 24 weeks, untreated controls deteriorated further) | four-limb wire hanging strength test vs control group [7] | grip strength test vs control group [7] | efficacy in CMT1A patients [8] | effect on trembler^J (Tr^J) mouse [9]
CC(=O)C(=O)[O-].[Na+] [pyruvate, sodium pyruvate] | 16583 ± 749 | 18259 ± 1051 | preserved their CMAPs | notable increase in myelinated fibers and increased myelin thickness | 15000.2 ± 878.4 | significantly better | significantly better | significantly reduced | about 53% | about 29% | 43 | 22 | about 27% | not significant | protected CMAP amplitude | performed better than control group | performed better than control group | – | –
B1 | – | – | – | – | – | – | – | – | – | – | – | – | – | – | – | – | – | showed efficacy | improved

Reference: US20180263945A1, “PYRUVATE COMPOUNDS FOR TREATMENT OF PERIPHERAL NEUROPATHY” (Research Institute at Nationwide Children's Hospital, priority 2014, published 2018)
